How the values were obtained:
KDM5C [1] = target: T1, KDM5C (Homo sapiens, UniProt P41229); assay: MALDI–TOF MS demethylation/+16 Da assay, KDM5C; type: biochemical; conditions: 90 min
T1 construct: KDM5C 1– 765; made in house; host or cells: Sf9 cells
T1 sequence (P41229 1-765): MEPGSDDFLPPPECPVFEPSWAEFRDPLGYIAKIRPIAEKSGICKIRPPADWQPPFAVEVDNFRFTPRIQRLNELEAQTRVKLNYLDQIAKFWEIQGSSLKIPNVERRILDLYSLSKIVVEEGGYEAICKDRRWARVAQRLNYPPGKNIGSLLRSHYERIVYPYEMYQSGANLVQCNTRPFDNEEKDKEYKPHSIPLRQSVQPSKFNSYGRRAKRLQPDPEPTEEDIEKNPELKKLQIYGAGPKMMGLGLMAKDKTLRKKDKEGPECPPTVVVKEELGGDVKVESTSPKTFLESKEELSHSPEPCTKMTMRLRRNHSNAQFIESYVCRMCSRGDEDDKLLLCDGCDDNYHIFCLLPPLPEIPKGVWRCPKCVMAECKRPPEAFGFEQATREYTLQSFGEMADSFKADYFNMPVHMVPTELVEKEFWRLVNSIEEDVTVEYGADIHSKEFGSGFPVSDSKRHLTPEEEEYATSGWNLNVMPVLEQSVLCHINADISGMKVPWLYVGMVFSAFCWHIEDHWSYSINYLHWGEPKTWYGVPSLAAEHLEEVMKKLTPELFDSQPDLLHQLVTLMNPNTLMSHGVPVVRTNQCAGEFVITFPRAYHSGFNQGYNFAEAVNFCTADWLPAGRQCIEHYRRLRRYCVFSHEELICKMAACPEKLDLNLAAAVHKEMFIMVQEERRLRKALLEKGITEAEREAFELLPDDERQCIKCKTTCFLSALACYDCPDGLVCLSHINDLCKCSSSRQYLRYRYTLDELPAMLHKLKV
Excerpt: Fig. 2 Histone H2a fragments are KDM5 and KDM4 substrates. […] See Supplementary Table 6 and Supplementary Fig. 2 for assay conditions and quantification, respectively. […] 0-minute MS spectrum in black, 60/90-minute spectrum in red.
MS-based screening assays with peptides and calf thymus histones were as reported; see Supplementary Table 6 for conditions. Time course assays were based on reported procedures. In brief, equal volumes of the enzyme and substrate solutions were combined to initiate the reaction; 10 µL of 2% (v/v) formic acid (HCOOH) in ddH2O or 100% methanol was added to 10 µL of the reaction mixture to quench reactions at different time points. Unless otherwise stated, time course assays were carried out in triplicate. In some cases, LC–MS was used instead of MALDI-TOF MS to avoid a MALDI matrix induced artefact with the hydroxylated product (Supplementary Fig. 16). […]
Supplementary Figure 2 Histone H2a peptide fragments are substrates of KDM4s and KDM5s.
2 for representative corresponding MALDI–TOF MS traces. Bar graphs comparing % product format ion (+16 Da and demethylation) of H2a(1–20)R3me2a by (a) K DM5 A–D (after 90 minutes) and (b) KDM4A–E ( a ft er 60 minutes), analysed by MALDI– TOF MS. n = (a) 2, (b) 3 (independent assays). See Supplementary Table 6 for assay condit ions. See Figure S13 A 1 for a positive control.
(also on this page, place not known: formation KDM5A–D (after MALDI–TOF conditions. Figure S13A1 KDM4A KDM4B KDM4C KDM4D KDM4E 80% product formation KDM5A KDM5B KDM5C KDM5D % product formation) […]
(§1) [ E nz ym e] [Peptide] [2OG] [Ascorbate] [(NH4)2F e(S O4)2] [TCEP] Buffer pH7.5 Enzyme Cognate substrate (mM) (mM) (mM) (mM) (mM) (mM) [HE PE S]
(§2) Supplementary Table 6 Summary of MS assay conditions for substrate screening. These conditions enabled efficient turnover of established substrates. Reactions were carried out at 37 °C unless otherwise st ated. […]

KDM5C [2] = target: T1, KDM5C; assay: MALDI–TOF MS time course / specific activity, KDM5C; type: biochemical; conditions: for specific activity: KDM5C
Experimental: MS-based screening assays with peptides and calf thymus histones were as reported; see Supplementary Table 6 for conditions. Time course assays were based on reported procedures. In brief, equal volumes of the enzyme and substrate solutions were combined to initiate the reaction; 10 µL of 2% (v/v) formic acid (HCOOH) in ddH2O or 100% methanol was added to 10 µL of the reaction mixture to quench reactions at different time points. Unless otherwise stated, time course assays were carried out in triplicate. In some cases, LC–MS was used instead of MALDI-TOF MS to avoid a MALDI matrix induced artefact with the hydroxylated product (Supplementary Fig. 16).
Data collected from time course assay(s) were used to plot the % conversion vs time (min) using GraphPad Prism5 version 5.04; the resultant slopes were used to fit a line with linear regression to the first-order region of the reaction. The resultant gradient was then converted from % product formation min^−1 to amount of peptide converted (demethylation and / or hydroxylation) in µM.
Supplementary Figure 4 Activity of KDM5C (black circles) with H2a(1–20)R3me2a is greater than that of KDM4E (white circles). (a) A MALDI–TOF MS time course graph of product formation (%) of KDM4E ( −14 Da/+16 Da) and KDM5C (−14 Da) reaction with H2a(1–20)R3me2a versus time (minutes). ~60% substrate depletion was reached after 105 minutes with KDM4E; ~95% of H2a(1–20)R3me2a was demethylated after 1 05 minut e s wit h K DM5 C. (b ) Comparison of specific activities of KDM4E with H2a(1–20)R3me2a (0.15 […]
bars; +/- SD; n = 3 (independent assays). See Supplementary Table 6 for assay condit ions.
(also on this page, place not known: 105 minutes KDM5C. (b) H2a(1 –20)R3me2a with conditions. specific activity (pmol·min-1·μM-1))
(1 picture or pasted object on this page, not shown here)
as §1, §2

+16 Da (% product formation) (KDM5C [1]; replicate 1): 0%
demethylation (% product formation) (KDM5C [1]; replicate 1): 80.591%
+16 Da (% product formation) (KDM5C [1]; replicate 2): 0%
demethylation (% product formation) (KDM5C [1]; replicate 2): 82.588%
product formation (−14 Da) (KDM5C [2]; 0 min, replicate 1): 0%
product formation (−14 Da) (KDM5C [2]; 0 min, replicate 2): 0%
product formation (−14 Da) (KDM5C [2]; 0 min, replicate 3): 0%
product formation (−14 Da) (KDM5C [2]; 5 min, replicate 1): -4.611%
product formation (−14 Da) (KDM5C [2]; 5 min, replicate 2): 1.214%
product formation (−14 Da) (KDM5C [2]; 5 min, replicate 3): 6.766%
product formation (−14 Da) (KDM5C [2]; 15 min, replicate 1): 6.633%
product formation (−14 Da) (KDM5C [2]; 15 min, replicate 2): 6.871%
product formation (−14 Da) (KDM5C [2]; 15 min, replicate 3): 19.5603%
product formation (−14 Da) (KDM5C [2]; 30 min, replicate 1): 38.5829%
product formation (−14 Da) (KDM5C [2]; 30 min, replicate 3): 44.7254%
product formation (−14 Da) (KDM5C [2]; 45 min, replicate 1): 64.1732%
product formation (−14 Da) (KDM5C [2]; 45 min, replicate 2): 64.8428%
product formation (−14 Da) (KDM5C [2]; 45 min, replicate 3): 72.262%
product formation (−14 Da) (KDM5C [2]; 60 min, replicate 1): 81.9609%
product formation (−14 Da) (KDM5C [2]; 60 min, replicate 2): 81.6263%
product formation (−14 Da) (KDM5C [2]; 60 min, replicate 3): 82.8852%
product formation (−14 Da) (KDM5C [2]; 75 min, replicate 1): 85.9119%
product formation (−14 Da) (KDM5C [2]; 75 min, replicate 2): 87.0734%
product formation (−14 Da) (KDM5C [2]; 75 min, replicate 3): 90.3242%
product formation (−14 Da) (KDM5C [2]; 90 min, replicate 1): 92.0497%
product formation (−14 Da) (KDM5C [2]; 90 min, replicate 2): 90.1323%
product formation (−14 Da) (KDM5C [2]; 90 min, replicate 3): 97.0348%
product formation (−14 Da) (KDM5C [2]; 105 min, replicate 1): 95.3885%
product formation (−14 Da) (KDM5C [2]; 105 min, replicate 2): 93.3144%
product formation (−14 Da) (KDM5C [2]; 105 min, replicate 3): 100%
specific activity (KDM5C [2]; mean of n = 3, SD 0.006): 0.37 pmol min^−1 µM^−1
specific activity (KDM5C [2]; repeat 1): 0.3803 pmol·min-1·μM-1
specific activity (KDM5C [2]; repeat 2): 0.3775 pmol·min-1·μM-1
specific activity (KDM5C [2]; repeat 3): 0.3654 pmol·min-1·μM-1
RDM activity of KDM5C relative to KDM4E (times) (KDM5C [2]; ratio of specific activities): 2.5 times
Substance: Ac - SGR [ me 2a ] GKQ GGKAR AKAKT R SSR [H2a(1–20)R3me2a, H2a(1–20)R3me2a without a biotin tag]
